Reference: US20160106439A1, “PNEUMATIC TOURNIQUET” (BIONUMERIK PHARMACEUTICALS, INC., priority 2013, published 2016)
Like-named read-outs stand apart in the source and are kept apart here. Each block holds one molecule with its values, some of them ahead of it.

Assays:
[1] = molecular target: T1, mammalian thioredoxin reductase (TrxR) (Homo sapiens, UniProt Q16881); conditions: cited from earlier work
T1 sequence (Q16881 1-499 isoform Q16881-5): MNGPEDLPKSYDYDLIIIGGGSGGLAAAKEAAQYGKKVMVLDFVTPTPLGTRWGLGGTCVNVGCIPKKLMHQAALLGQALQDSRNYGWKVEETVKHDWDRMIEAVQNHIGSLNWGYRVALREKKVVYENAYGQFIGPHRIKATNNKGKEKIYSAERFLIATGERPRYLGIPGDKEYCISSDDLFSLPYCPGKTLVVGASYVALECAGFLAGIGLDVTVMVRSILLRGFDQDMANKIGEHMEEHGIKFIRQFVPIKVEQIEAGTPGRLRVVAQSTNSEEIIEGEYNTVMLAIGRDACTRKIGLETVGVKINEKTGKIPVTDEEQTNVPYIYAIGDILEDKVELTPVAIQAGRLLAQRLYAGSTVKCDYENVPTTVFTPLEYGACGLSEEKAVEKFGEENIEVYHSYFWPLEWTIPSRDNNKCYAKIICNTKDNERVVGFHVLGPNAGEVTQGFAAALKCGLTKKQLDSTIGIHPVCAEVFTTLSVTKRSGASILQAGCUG

[2] = molecular target: T2, Recombinant human Trx (Homo sapiens, UniProt P10599); assay type: biochemical; set-up: 6xHis (N); purchased Sigma (Trx); American Diagnostica (bovine TrxR); conditions: over MSSH and MSSCE
T2 sequence (P10599 1-105): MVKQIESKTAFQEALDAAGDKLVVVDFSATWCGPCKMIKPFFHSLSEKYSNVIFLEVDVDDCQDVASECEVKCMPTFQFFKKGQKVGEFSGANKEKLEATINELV
Experimental: See, Luthman M and Holmgren A. Rat liver thioredoxin and thioredoxin reductase: purification and characterization. […] All disulfides were added to reactions as 10x solutions in buffer. The total volume of each reaction was 0.1 mL. Reactions were initiated by the addition of TrxR and were incubated at 25° C. for 40 minutes. Reactions were analyzed using a Molecular Devices SpectraMax Plus UV/vis plate reader and the activity was calculated using a 4 minute linear portion of each assay.

[3] = molecular target: WT EGFR kinase (Homo sapiens, UniProt P00533); test: WT EGFR kinase assay (ADP-glo); conditions: for potentiation of Erlotinib inhibition of WT EGFR kinase activity: 10 μM and 100 μM ATP
[4] = molecular target: T3, TrxR/Trx system (Homo sapiens, UniProt P10599); test: NADPH oxidation by TrxR and Trx; assay type: biochemical; conditions: increasing concentrations of the substance
T3 construct: 6xHis (N); purchased Sigma (Trx); American Diagnostica (bovine TrxR)
T3 sequence (P10599 1-105): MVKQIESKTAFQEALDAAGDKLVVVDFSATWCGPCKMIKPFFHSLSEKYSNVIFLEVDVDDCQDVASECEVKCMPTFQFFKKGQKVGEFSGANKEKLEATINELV

[5] = molecular target: T4, glutathione reductase (GR) (Homo sapiens, UniProt P00390); conditions: cited from earlier work
T4 sequence (P00390 44-522): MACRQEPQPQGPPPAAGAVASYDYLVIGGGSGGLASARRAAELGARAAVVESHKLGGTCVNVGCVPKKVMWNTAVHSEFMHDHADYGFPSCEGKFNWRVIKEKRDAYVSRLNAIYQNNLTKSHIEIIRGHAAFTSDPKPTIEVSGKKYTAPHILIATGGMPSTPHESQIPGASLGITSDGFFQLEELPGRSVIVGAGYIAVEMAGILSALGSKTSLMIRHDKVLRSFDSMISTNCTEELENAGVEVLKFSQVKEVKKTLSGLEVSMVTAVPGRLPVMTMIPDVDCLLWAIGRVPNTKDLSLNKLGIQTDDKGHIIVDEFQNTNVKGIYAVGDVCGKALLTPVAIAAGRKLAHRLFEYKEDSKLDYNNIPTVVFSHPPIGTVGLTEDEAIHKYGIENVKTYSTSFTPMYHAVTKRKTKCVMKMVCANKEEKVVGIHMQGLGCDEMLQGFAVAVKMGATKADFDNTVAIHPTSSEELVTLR

[6] = molecular target: T2, Recombinant human Trx; test: LC MS of Trypsin digested Trx after incubation with Tavocept, mesna or glutathione; assay type: binding; set-up: purchased Sigma (SigmaAldrich); host or cells: E. coli; conditions: control reactions with glutathione
[7] = molecular target: T790M EGFR kinase (Homo sapiens, UniProt P00533, T790M); test: T790M EGFR kinase assay (ADP-glo); assay type: biochemical; conditions: for IC50: read-out: IC50 on T790M EGFR kinase activity; for potentiation of Erlotinib inhibition of T790M EGFR kinase activity: 10 μM and 100 μM ATP
[8] = system: bovine brain microtubule protein (α-/β-tubulin); test: Microtubule protein polymerization assay (OD350) and electron microscopy; assay type: biochemical; conditions: monoaquocisplatin 36 μM
[9] = molecular target: ErbB-2 (Homo sapiens, UniProt P04626); set-up: key: the “+” and “−” symbols signify the ability and inability to activate each of the ErbB receptors, respectively; the “+” and “−” symbols signify the ability and inability to activate each of the ErbB receptors, respectively; conditions: ability to activate the receptor; cited from earlier work
[10] = molecular target: ErbB-4 (Homo sapiens, UniProt Q15303); set-up: key: the “+” and “−” symbols signify the ability and inability to activate each of the ErbB receptors, respectively; the “+” and “−” symbols signify the ability and inability to activate each of the ErbB receptors, respectively; conditions: ability to activate the receptor; cited from earlier work
Sequence of ErbB-4 (Q15303 26-1308, species assumed): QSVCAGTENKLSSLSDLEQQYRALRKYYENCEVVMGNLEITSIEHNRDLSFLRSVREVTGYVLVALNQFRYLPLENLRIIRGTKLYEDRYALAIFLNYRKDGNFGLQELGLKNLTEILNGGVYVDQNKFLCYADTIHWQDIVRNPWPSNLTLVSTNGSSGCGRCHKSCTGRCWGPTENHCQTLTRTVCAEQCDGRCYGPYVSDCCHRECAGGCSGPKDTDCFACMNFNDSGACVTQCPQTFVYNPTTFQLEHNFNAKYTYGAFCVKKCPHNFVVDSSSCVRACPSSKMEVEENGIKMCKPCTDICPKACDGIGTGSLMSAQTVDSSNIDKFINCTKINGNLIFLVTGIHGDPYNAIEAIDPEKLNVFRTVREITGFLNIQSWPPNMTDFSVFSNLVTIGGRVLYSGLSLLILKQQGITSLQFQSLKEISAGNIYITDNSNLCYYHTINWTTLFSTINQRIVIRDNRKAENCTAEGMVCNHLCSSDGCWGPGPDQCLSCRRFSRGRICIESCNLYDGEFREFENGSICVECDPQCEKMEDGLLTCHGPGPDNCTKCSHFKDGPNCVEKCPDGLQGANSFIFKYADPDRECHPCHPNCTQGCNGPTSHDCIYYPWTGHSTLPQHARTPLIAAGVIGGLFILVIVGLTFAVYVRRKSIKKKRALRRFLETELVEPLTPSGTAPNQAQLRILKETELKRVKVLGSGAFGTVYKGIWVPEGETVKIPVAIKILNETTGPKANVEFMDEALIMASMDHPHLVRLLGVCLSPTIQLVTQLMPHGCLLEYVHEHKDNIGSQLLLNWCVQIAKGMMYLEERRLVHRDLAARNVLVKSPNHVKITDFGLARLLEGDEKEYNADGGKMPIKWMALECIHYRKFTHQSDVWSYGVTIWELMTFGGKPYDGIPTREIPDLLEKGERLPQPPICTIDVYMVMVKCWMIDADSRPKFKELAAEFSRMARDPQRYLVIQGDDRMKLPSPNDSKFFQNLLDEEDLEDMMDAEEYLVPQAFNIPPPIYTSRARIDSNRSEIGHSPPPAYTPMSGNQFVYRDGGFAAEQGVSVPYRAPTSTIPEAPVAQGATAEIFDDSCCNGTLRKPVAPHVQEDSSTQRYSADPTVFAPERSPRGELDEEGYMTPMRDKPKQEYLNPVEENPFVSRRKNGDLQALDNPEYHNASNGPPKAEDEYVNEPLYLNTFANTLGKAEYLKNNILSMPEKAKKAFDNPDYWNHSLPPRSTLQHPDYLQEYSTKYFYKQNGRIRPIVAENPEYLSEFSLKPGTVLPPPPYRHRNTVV

[11] = molecular target: ErbB-3 (Homo sapiens, UniProt P21860); set-up: key: the “+” and “−” symbols signify the ability and inability to activate each of the ErbB receptors, respectively; the “+” and “−” symbols signify the ability and inability to activate each of the ErbB receptors, respectively; conditions: ability to activate the receptor; cited from earlier work
[12] = molecular target: ErbB-1 (Homo sapiens, UniProt P00533); conditions: ability to activate the receptor; cited from earlier work
[13] = IC50 on WT EGFR kinase activity, 10 μM ATP
[14] = IC50 on WT EGFR kinase activity, 100 μM ATP
[15] = IC50 on WT EGFR kinase activity, 250 μM ATP, conducted only once
[16] = read-out: IC50 on WT EGFR kinase activity, 10 μM ATP
[17] = read-out: IC50 on WT EGFR kinase activity, 100 μM ATP
[18] = read-out: IC50 on WT EGFR kinase activity, 250 μM ATP, conducted only once

Molecule: CC1=C(/C=C/C(C)=C/C=C/C(C)=C\C(=O)O)C(C)(C)CCC1 [13-cis-retinoic acid]
Inhibition of TrxR [1]: irreversible inhibition

Molecule: NC(CSSCCS(=O)(=O)O)C(=O)NCC(=O)O (centres unmarked) [MSSCG, mesna-cysteinyl glycine disulfide]
Substrate preference of Trx [2]: preferred slightly
more inhibition of WT EGFR relative to 4 nM Erlotinib alone ([3]; 10 μM ATP, 0.50 mM + 4 nM Erlotinib): 28%
more inhibition of WT EGFR relative to 4 nM Erlotinib alone ([3]; 10 μM ATP, 0.75 mM + 4 nM Erlotinib (MSSCG series)): 43%

Molecule: NC(CCSSCCS(=O)(=O)O)C(=O)O (centres unmarked) [MSSH, mesna-homocysteine disulfide]
NADPH oxidation by TrxR and Trx [4]: increases

Molecule: CS(=O)(=O)OCCCCOS(C)(=O)=O [busulfan]
Inhibition of GR [5]: not GR
Inhibition of TrxR [1]: irreversibly inhibited

Molecule: N.N.O=C([O-])C1(C(=O)[O-])CCC1.[Pt+2] [carboplatin]
Inhibition of GR [5]: could not inhibit
Inhibition of TrxR [1]: could not inhibit

Molecule: O=NN(CCCl)C(=O)NCCCl [carmustine]
Inhibition of GR [5]: can inhibit
Inhibition of TrxR [1]: can inhibit

Molecule: O=C(O)CCCc1ccc(N(CCCl)CCCl)cc1 [chlorambucil]
Inhibition of GR [5]: not GR
Inhibition of TrxR [1]: irreversibly inhibited

Molecule: N.N.[Cl][Pt][Cl] [cisplatin]
Inhibition of GR [5]: not GR
Inhibition of TrxR [1]: irreversibly inhibited

Molecule: O=P1(N(CCCl)CCCl)NCCCO1 (centres unmarked) [cyclophosphamide]
Inhibition of GR [5]: not GR
Inhibition of TrxR [1]: irreversibly inhibited

Molecule: COc1cccc2c1C(=O)c1c(O)c3c(c(O)c1C2=O)C[C@@](O)(C(C)=O)C[C@@H]3O[C@H]1C[C@H](N)[C@H](O)[C@H](C)O1 [daunorubicin]
Inhibition of TrxR [1]: not inhibitors

Molecule: COc1cccc2c1C(=O)c1c(O)c3c(c(O)c1C2=O)C[C@@](O)(C(=O)CO)C[C@@H]3O[C@H]1C[C@H](N)[C@H](O)[C@H](C)O1 [doxorubicin]
Inhibition of TrxR [1]: not inhibitors

Glutathione adduct on Trx [6]: glutathionylated at cysteine-73 (Cys73)
Molecule: N[C@@H](CCC(=O)N[C@@H](CS)C(=O)NCC(=O)O)C(=O)O [glutathione, γ-glutamyl-cysteinyl-glycine, reference compound]

Molecule: O=P1(NCCCl)OCCCN1CCCl (centres unmarked) [ifosfamide]
Inhibition of TrxR [1]: inhibited

Molecule: N[C@@H](Cc1ccc(N(CCCl)CCCl)cc1)C(=O)O [melphalan]
Inhibition of GR [5]: not GR
Inhibition of TrxR [1]: irreversibly inhibited

Molecule: NC(CSSCCS(=O)(=O)O)C(=O)O (centres unmarked) [mesna-cysteine]
IC50 ([7]; 10 μM ATP): 3760 ± 260 µM
potentiation of Erlotinib inhibition of T790M EGFR kinase activity [7]: effectively potentiated
IC50 ([7]; 100 μM ATP): 3030 ± 280 µM
potentiation of Erlotinib inhibition of WT EGFR kinase activity [3]: effectively potentiated
IC50 [3, 13]: 2750 ± 800 µM
IC50 [3, 14]: 2650 ± 110 µM
IC50 [3, 15]: 2870 µM

Molecule: NC(CSSCCS(=O)(=O)O)C(=O)NC(CCC(=O)O)C(=O)O (centres unmarked) [mesna-cysteinylglutamate]
IC50 ([7]; 10 μM ATP): 1090 ± 190 µM
potentiation of Erlotinib inhibition of T790M EGFR kinase activity [7]: effectively potentiated
IC50 ([7]; 100 μM ATP): 1050 ± 80 µM
potentiation of Erlotinib inhibition of WT EGFR kinase activity [3]: effectively potentiated
IC50 [3, 16]: 714 ± 120 µM
IC50 [3, 17]: 815 ± 20 µM
IC50 [3, 18]: 690 µM

Molecule: NC(CSSCCS(=O)(=O)O)C(=O)NCC(=O)O (centres unmarked) [mesna-cysteinylglycine]
IC50 ([7]; 10 μM ATP): 510 ± 10 µM
potentiation of Erlotinib inhibition of T790M EGFR kinase activity [7]: effectively potentiated
IC50 ([7]; 100 μM ATP): 410 ± 50 µM
potentiation of Erlotinib inhibition of WT EGFR kinase activity [3]: effectively potentiated
IC50 [3, 13]: 445 ± 80 µM
IC50 [3, 14]: 370 ± 121 µM
IC50 [3, 15]: 320 µM

Molecule: NC(CCC(=O)NC(CSSCCS(=O)(=O)O)C(=O)NCC(=O)O)C(=O)O (centres unmarked) [mesna-glutathione]
IC50 ([7]; 10 μM ATP): 1280 ± 290 µM
potentiation of Erlotinib inhibition of T790M EGFR kinase activity [7]: effectively potentiated
IC50 ([7]; 100 μM ATP): 1170 ± 10 µM
potentiation of Erlotinib inhibition of WT EGFR kinase activity [3]: effectively potentiated
IC50 [3, 16]: 724 ± 220 µM
IC50 [3, 17]: 820 ± 240 µM
IC50 [3, 18]: 1570 µM

Molecule: N.N.O.[Cl][Pt+] [monoaquocisplatin, reference compound]
effect of extended exposure on microtubule protein polymerization [8]: notable and reproducible loss

Molecule: O=C1[O][Pt]2([NH][C@@H]3CCCC[C@H]3[NH]2)[O]C1=O [oxaliplatin]
Inhibition of GR [5]: not GR
Inhibition of TrxR [1]: irreversibly inhibited

Molecule: N.N.[Cl][Pt+2][Cl] [transplatin]
Inhibition of GR [5]: not GR
Inhibition of TrxR [1]: irreversibly inhibited

Molecule: EGF: growth factor ligand of ErbB receptors
ErbB-2 [9]: −
ErbB-4 [10]: −
ErbB-3 [11]: −

Molecule: HB-EGF: growth factor ligand of ErbB receptors
ErbB-2 [9]: −
ErbB-4 [10]: +
ErbB-1 [12]: +
ErbB-3 [11]: −

Molecule: TGF-α: growth factor ligand of ErbB receptors
ErbB-2 [9]: −
ErbB-4 [10]: −
ErbB-3 [11]: −

Molecule: amphiregulin: growth factor ligand of ErbB receptors
ErbB-2 [9]: −
ErbB-4 [10]: −
ErbB-1 [12]: +
ErbB-3 [11]: −

Molecule: betacellulin: growth factor ligand of ErbB receptors
ErbB-2 [9]: −
ErbB-4 [10]: +
ErbB-1 [12]: +
ErbB-3 [11]: −

Molecule: epiregulin: growth factor ligand of ErbB receptors
ErbB-2 [9]: −
ErbB-4 [10]: +
ErbB-1 [12]: +
ErbB-3 [11]: −

Molecule: neuregulin 1
ErbB-2 [9]: −
ErbB-4 [10]: +
ErbB-1 [12]: −
ErbB-3 [11]: +

B1: epigen: growth factor ligand of ErbB receptors (protein, UniProt Q6UW88 23-154, looked up)
Epigen: AAVTVTPPITAQQGNWTVNKTEADNIEGPIALKFSHLCLEDHNSYCINGACAFHHELEKAICRCFTGYTGERCEHLTLTSYAVDSYEKYIAIGIGVGLLLSGFLVIFYCYIRKRCLKLKSPYNVCSGERRPL
ErbB-2 [9]: −
ErbB-4 [10]: −
ErbB-1 [12]: +
ErbB-3 [11]: −
